The values that follow come from patent US20190008878A1, “COMPOSITIONS AND METHOD FOR REDUCING CARDIOTOXICITY” (SignPath Pharma Inc., priority 2017, published 2019).

For one data set, the system named is HEK293 cells. The following applies: 20 μM, 24 h incubation; cited from earlier work.
A short description of data set [1]: chronic sunitinib cardiotoxicity study, two 28-day cycles with or without the invention (ECG, echocardiography, arterial pressure, body weight, troponin). In kind it is in vivo, Hartley guinea pigs. The following applies: for left ventricular / cardiac hypertrophy (cardiac weight): after 86 days (2 cycles) of treatment.
Data set [2] can be described thus: Langendorff retrograde perfusion of hearts taken on Day 86 (left ventricle contractility and kinetics). The following applies: Day 86, ex vivo Langendorff. More on the design: species or system Hartley guinea pigs. The method, then:
In FIG. 5B, on Day 86, the animals were euthanized and the hearts mounted onto a Langendorff retrograde perfusion system. A left ventricular pressure transducer was inserted into the left ventricle and recorded LV contraction amplitude and kinetics.
In FIG. 6, the pressure developed by the heart on Day 86 of treatment was measured ex-vivo in a Langendorff retrograde perfusion system.

Structures are written as SMILES. Entries after “also recorded” stand apart in the source; their conditions may differ.

As for `COc1cc(/C=C/C(=O)CC(=O)/C=C/c2ccc(O)c(OC)c2)ccc1O` [curcumin], the HEK293 cell viability entry in the data set with HEK293 cells was “reduced”.
Take `CCN(CC)CCNC(=O)c1c(C)[nH]c(/C=C2\C(=O)Nc3ccc(F)cc32)c1C` [sunitinib]: in data set [1] (Day 86, invasive femoral artery catheter, anesthetized animals, sunitinib alone compared with sunitinib plus the invention), the “mean arterial blood pressure” value is listed as “Significantly higher”. The “left ventricular / cardiac hypertrophy (cardiac weight)” value in data set [1] is “onset of hypertrophy”; in data set [1] (listed as Sunitinib) it was “caused cardiac hypertrophy”. The compound also displayed a QTc prolongation in data set [1] (as of Day 28, increasing steadily until Day 86, sunitinib 10 mg/kg/day, Bazett correction, n=6 per group) of 15 to 25 ms. Moreover, the “Troponin I levels” value in data set [1] (blood, sunitinib alone compared with sunitinib plus the invention) is on record as “significantly higher”. Also, in data set [1] (cardiac echography, over the treatment), the “LV ejection velocity at the aortic valve (AoVMax)” value is given as “lower; also recorded: gradual decrease”. The “left ventricular distension (end of diastole and end of systole)” value in data set [1] (echocardiography, over the treatment) is “left-ventricular distention”; in data set [1] (echocardiography, over the treatment, listed as Sunitinib), “greater LV distension”. Also, the left-ventricular fractional shortening result in data set [1] (echocardiography, difference between groups significant after 86 days) was “lower; also recorded: time-dependent loss”. Besides, the “Troponin levels compared with intact animals” value in data set [1] (intact animals 0.05 ng/mL (data not shown)) is “significantly greater”. Moreover, the “end-systolic / developed left ventricular pressure” value in data set [2] was “significantly lower”. The “rate of contraction of the LV” value in data set [2] (LV pressure transducer) is on record as “lower”.
